Assays:
[1] = test system: MMP-9 mRNA; assay: MMP-9 mRNA level in mature dendritic cells after induction of differentiation; assay type: cell-based, human; details: medium with 1 μM for three days, or 5 μM for one day then 1 μM for two days, FIG. 9
Method: Total RNA was isolated from the cultured cells (1×10^6 cells) using TRIzol reagent (Life Technologies). Each RNA sample (2 μg) was converted to cDNA in 50 μl of reaction mixture containing 75 mM KCl, 50 mM Tris-HCl (pH 8.3), 3 mM MgCl2, 10 mM dithiothreitol, 0.5 mM each of dNTPs, 2 μM random primer, and 1000 U of TaqMan Reverse Transcription reagent. Each cDNA (10 ng) was amplified in triplicate using an SYBR-Green PCR assay kit, and sequenced using an ABI PRISM 7900HT sequence Detection System. PCR was carried out by incubation at 50° C. for 2 minutes and then at 95° C. for 15 minutes, followed by 15 cycles of denaturation at 95° C., 30 cycles of annealing at 60° C., and extension at 72° C. for 1 minute. […] The mature dendritic cells obtained in Example 1 were cultured in the culture medium supplemented with 1 μM all-trans retinoic acid for three days or in the culture medium supplemented with 5 μM all-trans retinoic acid for one day. The cells were further cultured in the culture medium supplemented with 1 μM all-trans retinoic acid for two days, to induce the differentiation of the dendritic cells. After the induction of the differentiation, MMP-9 mRNA level in the cells was determined.

[2] = test system: dendritic cells; assay: Infiltration activity of dendritic cells by the Transwell Chamber method (Matrigel); assay type: cell-based, human; details: for infiltration activity of immature and mature dendritic cells: 10 ng/ml added, FIG. 8
Method: Peripheral blood mononuclear cells (PBMCs) from healthy subjects were separated by Ficoll-Paque density gradient centrifugation. Peripheral blood mononuclear cells were dispersed at a cell density of 2×10^6 cells/ml in complete RPMI-1640e medium, and the resulting suspension is incubated at 37° C. for one hour to give adhesive cells. Nonadhesive cells were removed by washing five times with RPMI-1640 medium. The adhesive cells were cultured in RPMI medium containing 1000 U/ml GM-CSF and 1000 U/ml IL-4, 10% FBS, 25 mM HEPES, 2 mM L-glutamic acid, 50 μM 2-ME, 1% nonessential amino acids, and 2 mM sodium pyruvate under hypoxic conditions (oxygen concentration was 1%; herein, hypoxic conditions refer to conditions where the oxygen concentration is 1%) or normoxic conditions (oxygen concentration was 20%; herein, normoxic conditions refer to conditions where the oxygen concentration is 20%) at 37° C. under an 5% carbon dioxide atmosphere for six days with half of the medium being changed every day. On day six, the cells were collected and divided into two groups. The first group was cultured in a medium containing IL-4 and GM-CSF for one day, and then used as immature dendritic cells. […]
The infiltration activity of dendritic cells was measured by the Transwell Chamber method using the following procedure: a Matrigel was immobilized onto a membrane that separates a top chamber and a bottom chamber; after washing, dendritic cells were placed in the top chamber; 100 ng/ml recombinant human RANTES was placed in the bottom chamber when immature dendritic cells were used, or 100 ng/ml recombinant human MCP-3 was placed in the bottom chamber when mature dendritic cells were used; cells migrating into the bottom chamber were counted. […]
The mature dendritic cells obtained in Example 1 were cultured in the culture medium supplemented with 1 μM all-trans retinoic acid to induce their differentiation. Then, the infiltration activity of dendritic cells was determined by the same procedure described in Example 7.

Compound	MMP-9 mRNA level in the cells [1]	infiltration activity of dendritic cells ([2]; mature dendritic cells differentiated under hypoxic conditions, 1 μM in culture medium, FIG. 10)	infiltration activity of immature and mature dendritic cells ([2]; cells differentiated under hypoxic conditions)	infiltration activity of immature and mature dendritic cells ([2]; cells differentiated under normoxic conditions)
CC1=C(/C=C/C(C)=C/C=C/C(C)=C/C(=O)O)C(C)(C)CCC1 [all-trans retinoic acid]	increased	increased		
TIMP-1 protein: TIMP-1 is an MMP-9-specific inhibitor; protein added at 10 ng/ml			not changed	reduced
